Reference: patent US20030224416A1, “Schizophrenia related gene” (priority 2002, published 2003)

System: Kv3.1 α-subunit mRNA
Test: Experiment 1: in situ hybridization of Kv3.1 α-subunit mRNA in brain, chronic PCP rat model of schizophrenia with antipsychotic co-treatment
Assay type: in vivo

## CN1CCN(C2=Nc3ccc(F)cc3Nc3sc4ccccc4c32)CC1.O=C(O)/C=C\C(=O)O [Y-931, 8-fluoro-12-(4-methylpiperazin-1-yl)-6H-[l]benzothieno[2,3-b][1,5]benzo-diazepine monomaleate]
ACg, PCP + drug 0.3 mg/kg/day
  Kv3.1 α-subunit mRNA expression: 15.36 ± 0.29 PSL/mm^2
ACg, PCP + drug 1 mg/kg/day
  Kv3.1 α-subunit mRNA expression: 15.10 ± 0.92 PSL/mm^2
ACg, PCP + drug 3 mg/kg/day
  Kv3.1 α-subunit mRNA expression: 15.40 ± 0.83 PSL/mm^2
ACg, PCP + drug 10 mg/kg/day
  Kv3.1 α-subunit mRNA expression: 14.82 ± 0.74 PSL/mm^2
AcbC, PCP + drug 0.3 mg/kg/day
  Kv3.1 α-subunit mRNA expression: 7.65 ± 0.40 PSL/mm^2
AcbC, PCP + drug 1 mg/kg/day
  Kv3.1 α-subunit mRNA expression: 8.40 ± 0.63 PSL/mm^2
AcbC, PCP + drug 3 mg/kg/day
  Kv3.1 α-subunit mRNA expression: 8.44 ± 0.43 PSL/mm^2
AcbC, PCP + drug 10 mg/kg/day
  Kv3.1 α-subunit mRNA expression: 8.42 ± 0.53 PSL/mm^2
AcbS, PCP + drug 0.3 mg/kg/day
  Kv3.1 α-subunit mRNA expression: 10.24 ± 0.64 PSL/mm^2
AcbS, PCP + drug 1 mg/kg/day
  Kv3.1 α-subunit mRNA expression: 11.55 ± 0.50 PSL/mm^2
AcbS, PCP + drug 3 mg/kg/day
  Kv3.1 α-subunit mRNA expression: 11.11 ± 0.27 PSL/mm^2
AcbS, PCP + drug 10 mg/kg/day
  Kv3.1 α-subunit mRNA expression: 11.26 ± 0.67 PSL/mm^2
Au1, PCP + drug 0.3 mg/kg/day
  Kv3.1 α-subunit mRNA expression: 17.02 ± 1.26 PSL/mm^2
Au1, PCP + drug 1 mg/kg/day
  Kv3.1 α-subunit mRNA expression: 18.48 ± 1.36 PSL/mm^2
Au1, PCP + drug 3 mg/kg/day
  Kv3.1 α-subunit mRNA expression: 16.76 ± 0.32 PSL/mm^2
Au1, PCP + drug 10 mg/kg/day
  Kv3.1 α-subunit mRNA expression: 17.98 ± 0.68 PSL/mm^2
CA1pd, PCP + drug 0.3 mg/kg/day
  Kv3.1 α-subunit mRNA expression: 16.80 ± 1.23 PSL/mm^2
CA1pd, PCP + drug 1 mg/kg/day
  Kv3.1 α-subunit mRNA expression: 18.34 ± 0.91 PSL/mm^2
CA1pd, PCP + drug 3 mg/kg/day
  Kv3.1 α-subunit mRNA expression: 16.47 ± 0.98 PSL/mm^2
CA1pd, PCP + drug 10 mg/kg/day
  Kv3.1 α-subunit mRNA expression: 19.18 ± 2.03 PSL/mm^2
CA2pd, PCP + drug 0.3 mg/kg/day
  Kv3.1 α-subunit mRNA expression: 24.07 ± 1.74 PSL/mm^2
CA2pd, PCP + drug 1 mg/kg/day
  Kv3.1 α-subunit mRNA expression: 20.07 ± 1.71 PSL/mm^2
CA2pd, PCP + drug 3 mg/kg/day
  Kv3.1 α-subunit mRNA expression: 21.47 ± 2.23 PSL/mm^2
CA2pd, PCP + drug 10 mg/kg/day
  Kv3.1 α-subunit mRNA expression: 22.31 ± 1.57 PSL/mm^2
CA3pd, PCP + drug 0.3 mg/kg/day
  Kv3.1 α-subunit mRNA expression: 34.10 ± 1.52 PSL/mm^2
CA3pd, PCP + drug 1 mg/kg/day
  Kv3.1 α-subunit mRNA expression: 33.99 ± 3.29 PSL/mm^2
CA3pd, PCP + drug 3 mg/kg/day
  Kv3.1 α-subunit mRNA expression: 34.72 ± 1.24 PSL/mm^2
CA3pd, PCP + drug 10 mg/kg/day
  Kv3.1 α-subunit mRNA expression: 33.90 ± 2.52 PSL/mm^2
DGgd, PCP + drug 0.3 mg/kg/day
  Kv3.1 α-subunit mRNA expression: 38.38 ± 1.53 PSL/mm^2
DGgd, PCP + drug 1 mg/kg/day
  Kv3.1 α-subunit mRNA expression: 39.21 ± 1.75 PSL/mm^2
DGgd, PCP + drug 3 mg/kg/day
  Kv3.1 α-subunit mRNA expression: 36.93 ± 2.53 PSL/mm^2
DGgd, PCP + drug 10 mg/kg/day
  Kv3.1 α-subunit mRNA expression: 36.11 ± 2.06 PSL/mm^2
DLStr, PCP + drug 0.3 mg/kg/day
  Kv3.1 α-subunit mRNA expression: 6.55 ± 0.53 PSL/mm^2
DLStr, PCP + drug 1 mg/kg/day
  Kv3.1 α-subunit mRNA expression: 5.99 ± 0.96 PSL/mm^2
DLStr, PCP + drug 3 mg/kg/day
  Kv3.1 α-subunit mRNA expression: 7.13 ± 0.70 PSL/mm^2
DLStr, PCP + drug 10 mg/kg/day
  Kv3.1 α-subunit mRNA expression: 7.46 ± 0.86 PSL/mm^2
IL, PCP + drug 0.3 mg/kg/day
  Kv3.1 α-subunit mRNA expression: 11.64 ± 0.40 PSL/mm^2
IL, PCP + drug 1 mg/kg/day
  Kv3.1 α-subunit mRNA expression: 11.33 ± 0.60 PSL/mm^2
IL, PCP + drug 3 mg/kg/day
  Kv3.1 α-subunit mRNA expression: 12.91 ± 0.38 PSL/mm^2
IL, PCP + drug 10 mg/kg/day
  Kv3.1 α-subunit mRNA expression: 11.55 ± 0.45 PSL/mm^2
IO, PCP + drug 0.3 mg/kg/day
  Kv3.1 α-subunit mRNA expression: 17.52 ± 0.95 PSL/mm^2
IO, PCP + drug 1 mg/kg/day
  Kv3.1 α-subunit mRNA expression: 15.49 ± 0.30 PSL/mm^2
IO, PCP + drug 3 mg/kg/day
  Kv3.1 α-subunit mRNA expression: 17.52 ± 0.36 PSL/mm^2
IO, PCP + drug 10 mg/kg/day
  Kv3.1 α-subunit mRNA expression: 15.30 ± 0.62 PSL/mm^2
M1, PCP + drug 0.3 mg/kg/day
  Kv3.1 α-subunit mRNA expression: 15.33 ± 0.38 PSL/mm^2
M1, PCP + drug 1 mg/kg/day
  Kv3.1 α-subunit mRNA expression: 14.81 ± 0.80 PSL/mm^2
M1, PCP + drug 3 mg/kg/day
  Kv3.1 α-subunit mRNA expression: 17.01 ± 0.75 PSL/mm^2
M1, PCP + drug 10 mg/kg/day
  Kv3.1 α-subunit mRNA expression: 16.51 ± 0.67 PSL/mm^2
M2, PCP + drug 0.3 mg/kg/day
  Kv3.1 α-subunit mRNA expression: 13.23 ± 0.29 PSL/mm^2
M2, PCP + drug 1 mg/kg/day
  Kv3.1 α-subunit mRNA expression: 13.10 ± 0.57 PSL/mm^2
M2, PCP + drug 3 mg/kg/day
  Kv3.1 α-subunit mRNA expression: 14.25 ± 0.81 PSL/mm^2
M2, PCP + drug 10 mg/kg/day
  Kv3.1 α-subunit mRNA expression: 13.04 ± 0.53 PSL/mm^2
MG, PCP + drug 0.3 mg/kg/day
  Kv3.1 α-subunit mRNA expression: 26.82 ± 1.55 PSL/mm^2
MG, PCP + drug 1 mg/kg/day
  Kv3.1 α-subunit mRNA expression: 26.36 ± 0.95 PSL/mm^2
MG, PCP + drug 3 mg/kg/day
  Kv3.1 α-subunit mRNA expression: 26.75 ± 2.02 PSL/mm^2
MG, PCP + drug 10 mg/kg/day
  Kv3.1 α-subunit mRNA expression: 27.36 ± 1.86 PSL/mm^2
MM, PCP + drug 0.3 mg/kg/day
  Kv3.1 α-subunit mRNA expression: 25.02 ± 2.54 PSL/mm^2
MM, PCP + drug 1 mg/kg/day
  Kv3.1 α-subunit mRNA expression: 24.82 ± 0.93 PSL/mm^2
MM, PCP + drug 3 mg/kg/day
  Kv3.1 α-subunit mRNA expression: 20.92 ± 0.93 PSL/mm^2
MM, PCP + drug 10 mg/kg/day
  Kv3.1 α-subunit mRNA expression: 28.12 ± 1.89 PSL/mm^2
Pir, PCP + drug 0.3 mg/kg/day
  Kv3.1 α-subunit mRNA expression: 38.95 ± 2.38 PSL/mm^2
Pir, PCP + drug 1 mg/kg/day
  Kv3.1 α-subunit mRNA expression: 43.16 ± 2.76 PSL/mm^2
Pir, PCP + drug 3 mg/kg/day
  Kv3.1 α-subunit mRNA expression: 38.15 ± 3.31 PSL/mm^2
Pir, PCP + drug 10 mg/kg/day
  Kv3.1 α-subunit mRNA expression: 41.69 ± 1.90 PSL/mm^2
PrL, PCP + drug 0.3 mg/kg/day
  Kv3.1 α-subunit mRNA expression: 12.76 PSL/mm^2
PrL, PCP + drug 1 mg/kg/day
  Kv3.1 α-subunit mRNA expression: 12.17 PSL/mm^2
PrL, PCP + drug 3 mg/kg/day
  Kv3.1 α-subunit mRNA expression: 12.93 PSL/mm^2
PrL, PCP + drug 10 mg/kg/day
  Kv3.1 α-subunit mRNA expression: 12.55 PSL/mm^2
PrL, all doses administered (0.3-10 mg/kg/day)
  effect on PCP-induced decrease in Kv3.1 α-subunit mRNA expression: significantly reversed the PCP-induced decrease back to control levels
RSa, PCP + drug 0.3 mg/kg/day
  Kv3.1 α-subunit mRNA expression: 19.22 ± 1.40 PSL/mm^2
RSa, PCP + drug 1 mg/kg/day
  Kv3.1 α-subunit mRNA expression: 18.90 ± 1.03 PSL/mm^2
RSa, PCP + drug 3 mg/kg/day
  Kv3.1 α-subunit mRNA expression: 17.36 ± 1.55 PSL/mm^2
RSa, PCP + drug 10 mg/kg/day
  Kv3.1 α-subunit mRNA expression: 18.04 ± 0.87 PSL/mm^2
RSg, PCP + drug 0.3 mg/kg/day
  Kv3.1 α-subunit mRNA expression: 20.89 ± 0.95 PSL/mm^2
RSg, PCP + drug 1 mg/kg/day
  Kv3.1 α-subunit mRNA expression: 19.99 ± 0.59 PSL/mm^2
RSg, PCP + drug 3 mg/kg/day
  Kv3.1 α-subunit mRNA expression: 20.73 ± 1.22 PSL/mm^2
RSg, PCP + drug 10 mg/kg/day
  Kv3.1 α-subunit mRNA expression: 19.48 ± 0.64 PSL/mm^2
SN, PCP + drug 0.3 mg/kg/day
  Kv3.1 α-subunit mRNA expression: 11.66 ± 0.91 PSL/mm^2
SN, PCP + drug 1 mg/kg/day
  Kv3.1 α-subunit mRNA expression: 12.98 ± 1.12 PSL/mm^2
SN, PCP + drug 3 mg/kg/day
  Kv3.1 α-subunit mRNA expression: 13.04 ± 1.29 PSL/mm^2
SN, PCP + drug 10 mg/kg/day
  Kv3.1 α-subunit mRNA expression: 15.34 ± 1.58 PSL/mm^2
VMStr, PCP + drug 0.3 mg/kg/day
  Kv3.1 α-subunit mRNA expression: 6.75 ± 0.50 PSL/mm^2
VMStr, PCP + drug 1 mg/kg/day
  Kv3.1 α-subunit mRNA expression: 7.18 ± 0.71 PSL/mm^2
VMStr, PCP + drug 3 mg/kg/day
  Kv3.1 α-subunit mRNA expression: 7.69 ± 0.35 PSL/mm^2
VMStr, PCP + drug 10 mg/kg/day
  Kv3.1 α-subunit mRNA expression: 7.23 ± 0.26 PSL/mm^2
VO, PCP + drug 0.3 mg/kg/day
  Kv3.1 α-subunit mRNA expression: 19.12 ± 0.74 PSL/mm^2
VO, PCP + drug 1 mg/kg/day
  Kv3.1 α-subunit mRNA expression: 17.81 ± 1.08 PSL/mm^2
VO, PCP + drug 3 mg/kg/day
  Kv3.1 α-subunit mRNA expression: 19.32 ± 0.63 PSL/mm^2
VO, PCP + drug 10 mg/kg/day
  Kv3.1 α-subunit mRNA expression: 18.51 ± 1.08 PSL/mm^2
Chronic co-administration with PCP
  effect on PCP-induced decreases in Kv3.1 α-subunit mRNA expression (summary): reversed
dRt and DLStr
  effect on PCP-induced decrease in Kv3.1 α-subunit mRNA expression: neither Y-931 nor olanzapine significantly modulated the PCP-induced effect
dRt, PCP + drug 0.3 mg/kg/day
  Kv3.1 α-subunit mRNA expression: 54.94 ± 1.99 PSL/mm^2
dRt, PCP + drug 1 mg/kg/day
  Kv3.1 α-subunit mRNA expression: 51.68 ± 2.34 PSL/mm^2
dRt, PCP + drug 3 mg/kg/day
  Kv3.1 α-subunit mRNA expression: 53.38 ± 2.99 PSL/mm^2
dRt, PCP + drug 10 mg/kg/day
  Kv3.1 α-subunit mRNA expression: 54.81 ± 1.90 PSL/mm^2
vRt, PCP + drug 0.3 mg/kg/day
  Kv3.1 α-subunit mRNA expression: 46.91 ± 2.73 PSL/mm^2
vRt, PCP + drug 1 mg/kg/day
  Kv3.1 α-subunit mRNA expression: 47.18 ± 2.10 PSL/mm^2
vRt, PCP + drug 3 mg/kg/day
  Kv3.1 α-subunit mRNA expression: 52.57 ± 2.00 PSL/mm^2
vRt, PCP + drug 10 mg/kg/day
  Kv3.1 α-subunit mRNA expression: 49.70 ± 2.76 PSL/mm^2
